Experimental data taken from patent US20220280516A1, “PEGYLATED HEPARIN NANOMICELLE LOADED WITH CARBOXYLIC ACID ANTI-TUMOR DRUG AND PREPARATION METHOD THEREOF” (priority 2020, published 2022).

System: 5T33 multiple myeloma cells
Assay: In vivo experiment of multiple myeloma
Conditions: 5T33 myeloma mice, subcutaneous
Experimental: Thirty 6-week-old mice are divided into three groups, which are administrated with free bendamustine (Group I), PEG-Py-HP-bendamustine (Group II) and PEG-Mal-HP-bendamustine (Group III) respectively. Male and female animals in each group are halved, and there is no statistically significant difference in body weight among animals in each group. The dosage of free bendamustine group is 0.1 ml/kg body weight/day, and that of PEG-Py-HP-bendamustine group and PEG-Mal-HP-bendamustine group is 20 mg/kg (body weight/day).
One week after injection of 1,000,000 5T33 multiple myeloma cells into the tail veins of mice, drugs are administered subcutaneously according to the above scheme, for three times a week. During the administration period, the animals are weighed every day, and the dosage on that day is determined according to the weight, and the animals are continuously administered until the death of the mice. The venous blood of mice is collected and stored every week, and the time of death of mice is recorded.

Structure (SMILES): Cn1c(CCCC(=O)O)nc2cc(N(CCCl)CCCl)ccc21 [free bendamustine, Bendamustine]
- Average survival days of mice after drug injection (three times a week until death): 36 days
- Average tumor load in serum of mice after drug injection (1 day): 132.2 µg/mL
- Average tumor load in serum of mice after drug injection (8 days): 201.5 µg/mL
- Average tumor load in serum of mice after drug injection (15 days): 321.2 µg/mL
- Average tumor load in serum of mice after drug injection (22 days): 608.4 µg/mL
- Average tumor load in serum of mice after drug injection (29 days): 873.3 µg/mL
- Average tumor load in serum of mice after drug injection (36 days): 946.8 µg/mL
